Reference: PubChem BioAssay (NCI)
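Where inhibition never reached the appropriate level, the endpoint shown equals the highest concentration tested. Otherwise, values were interpolated linearly from a five-concentration, 48-hour dose response in 96-well plates. Here, GI50 denotes the concentration required for 50% inhibition of growth. TGI: concentration producing complete growth inhibition.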

Tests used:
Test in all cases: NCI tumour cell line growth inhibition, 48 h
NCI-H460 lung = system: NCI-H460 lung
M14 melanoma = system: M14 melanoma
OVCAR-5 ovarian = system: OVCAR-5 ovarian
A498 renal = system: A498 renal
MCF7 breast = system: MCF7 breast
A549 NSCLC = system: A549 NSCLC
TK-10 renal = system: TK-10 renal
K-562 leukemia = system: K-562 leukemia
CCRF-CEM leukemia = system: CCRF-CEM leukemia
MOLT-4 leukemia = system: MOLT-4 leukemia

Compound: O=C(CCl)Nc1ccc(Cl)cc1
- GI50 (NCI-H460 lung): 3.86 µM
- TGI (NCI-H460 lung): 16.5 µM
- GI50 (M14 melanoma): 4.45 µM
- TGI (M14 melanoma): 17 µM
- GI50 (OVCAR-5 ovarian): 3.57 µM
- TGI (OVCAR-5 ovarian): 12.9 µM
- GI50 (A498 renal): 10.4 µM
- TGI (A498 renal): 22.4 µM
- GI50 (MCF7 breast): 1.78 µM
- TGI (MCF7 breast): 4.54 µM
- GI50 (A549 NSCLC): 11.2 µM
- TGI (A549 NSCLC): 26.9 µM
- GI50 (TK-10 renal): 2.3 µM
- TGI (TK-10 renal): 5.75 µM

Compound: O=C1NC(=O)c2ccc([N+](=O)[O-])c3cccc1c23
- TGI (K-562 leukemia): 32.7 µM
- TGI (NCI-H460 lung): 29.7 µM
- TGI (M14 melanoma): 28.4 µM
- TGI (OVCAR-5 ovarian): 32.3 µM
- TGI (A498 renal): 29.1 µM
- TGI (MCF7 breast): 27.9 µM
- TGI (A549 NSCLC): 43.9 µM
- TGI (TK-10 renal): 45.8 µM

Compound: NCCCC[C@@H]1NC(=O)[C@H]2CCCN2C(=O)[C@H](Cc2ccccc2)NC(=O)[C@H](Cc2ccccc2)CNC1=O
- GI50 (K-562 leukemia): > 100 µM
- TGI (K-562 leukemia): > 100 µM
- GI50 (NCI-H460 lung): > 100 µM
- TGI (NCI-H460 lung): > 100 µM
- GI50 (M14 melanoma): > 100 µM
- TGI (M14 melanoma): > 100 µM
- GI50 (CCRF-CEM leukemia): > 100 µM
- TGI (CCRF-CEM leukemia): > 100 µM
- GI50 (OVCAR-5 ovarian): > 100 µM
- TGI (OVCAR-5 ovarian): > 100 µM
- GI50 (A498 renal): > 100 µM
- TGI (A498 renal): > 100 µM
- GI50 (MCF7 breast): > 100 µM
- TGI (MCF7 breast): > 100 µM
- GI50 (A549 NSCLC): > 100 µM
- TGI (A549 NSCLC): > 100 µM
- GI50 (MOLT-4 leukemia): > 100 µM
- TGI (MOLT-4 leukemia): > 100 µM
- GI50 (TK-10 renal): > 100 µM
- TGI (TK-10 renal): > 100 µM

Compound: COc1ccc(N2C(=O)C3c4[nH]c5ccc(C)cc5c4C4CCC(C(C)(C)C)CC4C3C2=O)cc1 (configuration not stated)
- TGI (K-562 leukemia): 41.2 µM
- TGI (NCI-H460 lung): 49.3 µM
- TGI (M14 melanoma): 34.3 µM
- TGI (CCRF-CEM leukemia): 16.7 µM
- TGI (MCF7 breast): > 100 µM
- TGI (A549 NSCLC): > 100 µM
- TGI (MOLT-4 leukemia): 34.9 µM
- TGI (TK-10 renal): 45.1 µM

Compound: CC1(C)C2CC(O)C1(C)CC2=O (configuration not stated)
- TGI (K-562 leukemia): > 100 µM
- TGI (NCI-H460 lung): > 100 µM
- TGI (M14 melanoma): > 100 µM
- TGI (CCRF-CEM leukemia): > 100 µM
- TGI (OVCAR-5 ovarian): > 100 µM
- TGI (MCF7 breast): > 100 µM
- TGI (A549 NSCLC): > 100 µM
- TGI (MOLT-4 leukemia): > 100 µM
- TGI (TK-10 renal): > 100 µM

Compound: Cc1cccc2nc(-c3ccccc3)cc(=O)n12
- TGI (K-562 leukemia): > 100 µM
- TGI (NCI-H460 lung): > 100 µM
- TGI (M14 melanoma): > 100 µM
- TGI (CCRF-CEM leukemia): > 100 µM
- TGI (OVCAR-5 ovarian): > 100 µM
- TGI (MCF7 breast): > 100 µM
- TGI (A549 NSCLC): > 100 µM
- TGI (MOLT-4 leukemia): > 100 µM
- TGI (TK-10 renal): > 100 µM

Compound: CC12CCCC(O)C1CCC1=CC3(CCC12)SCCS3 (configuration not stated)
- TGI (K-562 leukemia): > 10 µM
- TGI (M14 melanoma): > 10 µM
- TGI (CCRF-CEM leukemia): > 10 µM
- TGI (MCF7 breast): > 10 µM
- TGI (A549 NSCLC): > 10 µM
- TGI (TK-10 renal): > 10 µM

Compound: COC(=O)C(=O)C(C(=O)C(=O)Nc1ccccc1C(N)=O)c1nc2ccc(Cl)cc2[nH]c1=O (configuration not stated)
- TGI (K-562 leukemia): > 100 µM
- TGI (NCI-H460 lung): > 100 µM
- TGI (M14 melanoma): > 100 µM
- TGI (CCRF-CEM leukemia): > 100 µM
- TGI (OVCAR-5 ovarian): > 100 µM
- TGI (A498 renal): > 100 µM
- TGI (MCF7 breast): > 100 µM
- TGI (A549 NSCLC): > 100 µM
- TGI (MOLT-4 leukemia): > 100 µM

Compound: NC(N)=NCCCn1c2c(c3ccccc3c1=O)C(=O)c1ccccc1-2
- GI50 (K-562 leukemia): 11.6 µM
- TGI (K-562 leukemia): 29.5 µM
- GI50 (NCI-H460 lung): 15.3 µM
- TGI (NCI-H460 lung): > 100 µM
- GI50 (M14 melanoma): 18.7 µM
- TGI (M14 melanoma): 34.5 µM
- GI50 (CCRF-CEM leukemia): 19.9 µM
- TGI (CCRF-CEM leukemia): > 100 µM
- GI50 (OVCAR-5 ovarian): 25.7 µM
- TGI (OVCAR-5 ovarian): 94.6 µM
- GI50 (MCF7 breast): 7.27 µM
- TGI (MCF7 breast): 25.1 µM
- GI50 (A549 NSCLC): 27.1 µM
- TGI (A549 NSCLC): > 100 µM
- GI50 (MOLT-4 leukemia): 2.65 µM
- TGI (MOLT-4 leukemia): 18.8 µM
- GI50 (TK-10 renal): 29.5 µM
- TGI (TK-10 renal): 98.3 µM

Compound: Fc1cc(F)c(COc2cc(Cn3cnc4c(Cl)nc(Cl)nc43)ccc2C23CC4CC(CC(C4)C2)C3)cc1F
- GI50 (NCI-H460 lung): 19.4 µM
- TGI (NCI-H460 lung): 37.5 µM
- GI50 (CCRF-CEM leukemia): 1.91 µM
- TGI (CCRF-CEM leukemia): 4.52 µM
- GI50 (OVCAR-5 ovarian): 19.9 µM
- TGI (OVCAR-5 ovarian): 37.4 µM
- GI50 (A498 renal): 99.2 µM
- TGI (A498 renal): > 100 µM
- GI50 (MCF7 breast): 11 µM
- TGI (MCF7 breast): 27.5 µM
- GI50 (A549 NSCLC): 28 µM
- TGI (A549 NSCLC): 76.7 µM
- GI50 (TK-10 renal): 17.1 µM
- TGI (TK-10 renal): 31.1 µM

Compound: CN(C)c1ccc(N)cc1
- GI50 (NCI-H460 lung): 3.09 µM
- TGI (NCI-H460 lung): 13 µM
- GI50 (M14 melanoma): 4.66 µM
- TGI (M14 melanoma): 16.3 µM
- GI50 (OVCAR-5 ovarian): 13.5 µM
- TGI (OVCAR-5 ovarian): 42.6 µM
- GI50 (A498 renal): 7.02 µM
- TGI (A498 renal): 50.7 µM
- GI50 (MCF7 breast): 2.83 µM
- TGI (MCF7 breast): 9.12 µM
- GI50 (A549 NSCLC): 4.58 µM
- TGI (A549 NSCLC): 52.6 µM
- GI50 (TK-10 renal): 3.05 µM
- TGI (TK-10 renal): 18.5 µM

Compound: N#Cc1nc(C2OC(COC(=O)c3ccccc3)C(OC(=O)c3ccccc3)C2OC(=O)c2ccccc2)oc1N (configuration not stated)
- TGI (K-562 leukemia): > 100 µM
- TGI (NCI-H460 lung): > 100 µM
- TGI (M14 melanoma): > 100 µM
- TGI (CCRF-CEM leukemia): 34.6 µM
- TGI (OVCAR-5 ovarian): > 100 µM
- TGI (A498 renal): > 100 µM
- TGI (A549 NSCLC): > 100 µM
- TGI (MOLT-4 leukemia): > 100 µM
- TGI (TK-10 renal): > 100 µM

Compound: NC(CC(=O)OCc1ccccc1)C(=O)OCc1ccccc1 (configuration not stated)
- TGI (NCI-H460 lung): > 100 µM
- TGI (M14 melanoma): > 100 µM
- TGI (CCRF-CEM leukemia): > 100 µM
- TGI (OVCAR-5 ovarian): > 100 µM
- TGI (MCF7 breast): > 100 µM
- TGI (A549 NSCLC): > 100 µM
- TGI (TK-10 renal): > 100 µM

Compound: CC(=O)OC1=NN=C2COC(c3ccccc3OC(C)=O)=NN2C1
- TGI (K-562 leukemia): > 50 µM
- TGI (NCI-H460 lung): > 50 µM
- TGI (M14 melanoma): > 50 µM
- TGI (CCRF-CEM leukemia): > 50 µM
- TGI (OVCAR-5 ovarian): > 50 µM
- TGI (MCF7 breast): > 50 µM
- TGI (A549 NSCLC): > 50 µM
- TGI (TK-10 renal): > 50 µM

Compound: Cc1cc(SCC(=O)c2ccccc2)nc2ccccc12
- TGI (K-562 leukemia): > 100 µM
- TGI (NCI-H460 lung): > 100 µM
- TGI (M14 melanoma): > 100 µM
- TGI (OVCAR-5 ovarian): > 100 µM
- TGI (A498 renal): > 100 µM
- TGI (MCF7 breast): > 100 µM
- TGI (A549 NSCLC): > 100 µM
- TGI (MOLT-4 leukemia): > 100 µM
- TGI (TK-10 renal): > 100 µM
